Starred links: 1 amine or outer side, 2 acyl side, 3 side chain; linkers in the order of their positions; H or OH if unused. Non-standard residues stand in square brackets, D forms with d. Residues, ends and D or L forms follow the SMILES beside them. Groups on a side chain read outwards from the residue. No end group written: not given here. *: point of attachment. C20 diacid = O=C(O)CCCCCCCCCCCCCCCCCCC(=O)*; C18 diacid = O=C(O)CCCCCCCCCCCCCCCCC(=O)*; γGlu = O=C(O)[C@H](CCC(=O)[*:2])N[*:1]; Stearoyl = CCCCCCCCCCCCCCCCCC(=O)*; αMeF = C[C@](N)(Cc1ccccc1)C(=O)O; PEG2 = NCCOCCOCCC(=O)O; AEEA = NCCOCCOCC(=O)O; Aib = CC(C)(N)C(=O)O
Tests used:
[1] = molecular target: T1, human GLP-1 receptor (hGLP-1R) (Homo sapiens, UniProt P43220); assay: cAMP production (HTRF) in CHO cells expressing human GLP-1 receptor; format: cell-based; conditions: Table 8; % GLP-1R activity relative to GLP-1 / % GlucR activity relative to glucagon
T1 construct: expressed in transfected cells; host or cells: CHO
T1 sequence (P43220 24-463): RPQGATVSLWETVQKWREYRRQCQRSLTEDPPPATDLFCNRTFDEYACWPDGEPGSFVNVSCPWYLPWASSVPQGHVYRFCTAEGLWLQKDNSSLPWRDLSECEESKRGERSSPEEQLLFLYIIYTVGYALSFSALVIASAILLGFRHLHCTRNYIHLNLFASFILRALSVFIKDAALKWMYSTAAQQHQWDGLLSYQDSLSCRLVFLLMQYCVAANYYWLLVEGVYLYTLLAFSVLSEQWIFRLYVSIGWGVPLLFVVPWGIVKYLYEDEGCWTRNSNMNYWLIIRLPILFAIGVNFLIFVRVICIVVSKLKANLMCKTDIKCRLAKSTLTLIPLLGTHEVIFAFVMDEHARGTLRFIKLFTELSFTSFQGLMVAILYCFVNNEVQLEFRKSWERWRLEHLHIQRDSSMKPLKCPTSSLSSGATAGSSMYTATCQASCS

Male C57Bl/6 mice = assay: Mouse acute food intake study; format: in vivo; conditions: s.c., dose 10 nmol/kg, food intake at 24 h vs vehicle
Protocol: Male C57Bl/6 mice obtained from Jackson Laboratories or Charles River at 8-9 weeks of age and were housed one per cage in BioDaq (Research Diets) cages. Mice were placed on Alpha Dri bedding, standard chow diet (Envigo, 2018) and given water pouches. Mice were allowed to acclimate for 1-2 weeks. Body weight was measured to ensure appropriate acclimation. After acclimation, mice were sham dosed a minimum of 2 times prior to initiation of food intake study. On study day, mice were placed in clean cage bottoms, weighed, and fasted for 6-8 hours. Mice were sorted into groups based on average 24-hour food intake data and body weight. 1-2 hours prior to lights out, mice were dosed subcutaneously with one vehicle or test peptide dissolved in an appropriate vehicle at 5 mL/kg. Mice were left undisturbed and allowed access to food and water for 48 hours. Automated food intake was monitored in the BioDaq system was monitored during this time. Discrete food intake data was exported into MS Excel from which cumulative food intake data was generated and analyzed.

wildtype (WT) mice = assay: Glucose change in wildtype mice; format: in vivo, mouse; conditions: s.c.
Protocol: (§1) GLP-JR knockout (KG) and wildtype (WT) mice at 8-14 weeks of age were singly housed on standard chow diet (Envigo, 2918) and automatic water. They acclimated for a minimum of ˜1-2 weeks, and mice were sorted into groups (n=4-8/group) based on body weight. On day of study, mice were fasted briefly for 2 hrs prior to study start. In some studies, mice were pre-treated with octreotide (BaChem, 10 mg/kg) at 30 minutes prior to peptide injection. Glucose was measured via glucometer at various timepoints including −30 min (prior to octreotide when used in studies), 0 min (before peptide dose), 30, 60, 120, 180, 240, and 360 minutes. Since these studies are acute in nature, mice were re-used for multiple studies (no more than 3) and always allowed at least a minimum wash-out period of 1 week.

GLP-1R knockout mice = assay: Glucose change in GLP-1R knockout mice; format: in vivo, mouse; conditions: GLP-1R KO mice, s.c., 10 nmol/kg, no somatostatin pretreatment
Protocol: as §1, with “They” for “GLP-JR knockout (KG) and wildtype (WT) mice at 8-14 weeks of age were singly housed on standard chow diet (Envigo, 2918) and automatic water. They”

neprilysin = molecular target: T2, neprilysin (Homo sapiens, UniProt P08473); assay: Proteolytic resistance to neprilysin; format: in vitro ADME; conditions: pH 8.3
T2 construct: purchased R&D Systems 1182-ZNC-010
T2 sequence (P08473 whole entry): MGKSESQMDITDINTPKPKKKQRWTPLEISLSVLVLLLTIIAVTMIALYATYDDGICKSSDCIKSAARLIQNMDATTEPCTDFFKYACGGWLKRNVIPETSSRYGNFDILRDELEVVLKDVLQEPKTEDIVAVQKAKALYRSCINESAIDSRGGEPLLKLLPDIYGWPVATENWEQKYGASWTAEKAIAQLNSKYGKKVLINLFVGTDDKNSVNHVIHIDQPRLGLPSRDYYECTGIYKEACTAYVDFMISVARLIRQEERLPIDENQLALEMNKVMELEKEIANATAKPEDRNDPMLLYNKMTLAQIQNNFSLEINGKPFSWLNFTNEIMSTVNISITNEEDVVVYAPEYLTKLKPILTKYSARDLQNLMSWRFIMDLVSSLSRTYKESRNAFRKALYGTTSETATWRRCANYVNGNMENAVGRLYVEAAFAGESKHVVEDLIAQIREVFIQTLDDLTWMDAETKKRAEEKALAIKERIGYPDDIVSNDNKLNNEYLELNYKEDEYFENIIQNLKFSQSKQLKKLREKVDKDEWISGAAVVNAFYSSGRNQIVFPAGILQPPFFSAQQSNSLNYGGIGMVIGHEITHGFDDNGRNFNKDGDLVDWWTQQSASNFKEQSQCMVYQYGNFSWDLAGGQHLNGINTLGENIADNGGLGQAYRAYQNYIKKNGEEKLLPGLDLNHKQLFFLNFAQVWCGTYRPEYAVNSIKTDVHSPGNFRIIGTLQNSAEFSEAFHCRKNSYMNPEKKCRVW
Protocol: 10.0 μg (˜10 units) recombinant Neprilysin (R&D Systems: 1182-ZNC-010) was reconstituted to 100 μL (100 μg/mL, ˜100 units/mL) in assay buffer (50 mM Tris, 50 mM NaCl, 50 mM NaHCO3, adjusted to pH 8.3) to give the enzyme stock solution. Peptide stock solutions were prepared to a concentration of ˜250 μM (˜1.0 mg/mL of 4 kDa peptide) in assay buffer. 100 μL (10 μg, ˜10 units) of neprilysin stock solution was added to 100 μL of peptide stock solution (1.0 mg/mL, ˜100 μg of peptide) and the mixture was co-incubated in a temperature regulated incubator at 37° C. for the duration of the experiment. 25 μL aliquots (˜12.5 μg initial peptide) of the peptide-enzyme mixture were periodically withdrawn (t=0, 30 mins, 1 h, 2 h, 4 h and 24 h) and quenched immediately by addition to an equal volume ([…]) of 10% TFA (v/v) in 1:1 water/acetonitrile to arrest proteolytic activity. The quenched aliquot centrifuged at 7800 rpm, and 30 μL of the supernatant was analyzed by analytical RP-HPLC as follows: Analytical RP-HPLC method: Agilent Polaris C8-A column (4.6×100 mm, 3 micron) eluted with a linear binary gradient of 10-90% MeCN (0.1% TFA v/v) in water (0.1% TFA v/v) over either 10 or 15 mins at 1.5 mL min^−1 at 40° C. with detection by UV absorption at 210 nm. Manual integration (AUC) allowed estimation of remaining intact peptide over the time course of the experiment.

human glucagon receptor = human glucagon receptor (human, UniProt P47871); assay: cell-based or functional assay

## CC[C@H](C)[C@H](NC(=O)C(C)(C)NC(=O)[C@H](CCCCNC(=O)COCCOCCNC(=O)COCCOCCNC(=O)CC[C@H](NC(=O)CC[C@H](NC(=O)CCCCCCCCCCCCCCCCCCC(=O)O)C(=O)O)C(=O)O)NC(=O)[C@@H](NC(=O)[C@](C)(Cc1ccccc1)NC(=O)[C@H](CC(=O)O)NC(=O)[C@H](CCC(N)=O)NC(=O)[C@H](C)NC(=O)[C@H](C)NC(=O)[C@H](CCCNC(=N)N)NC(=O)[C@H](CO)NC(=O)[C@H](CC(=O)O)NC(=O)[C@H](CC(C)C)NC(=O)[C@](C)(Cc1ccccc1)NC(=O)[C@H](CCCCN)NC(=O)[C@H](CO)NC(=O)[C@@H](NC(=O)[C@H](CC(=O)O)NC(=O)[C@H](CO)NC(=O)[C@@H](NC(=O)[C@](C)(Cc1ccccc1)NC(=O)[C@H](CO)NC(=O)CNC(=O)[C@H](Cc1c[nH]cn1)NC(=O)C(C)(C)NC(=O)[C@@H](N)Cc1c[nH]cn1)[C@@H](C)O)C(C)C)C(C)C)C(=O)N[C@@H](C)C(=O)N[C@@H](CC(N)=O)C(=O)N[C@H](C(N)=O)[C@@H](C)O [Peptide 375] (H-H[Aib]HGS[αMeF]TSDVSK[αMeF]LDSRAAQD[αMeF]VK([AEEA-AEEA-γGlu-γGlu-C20 diacid])[Aib]IANT-NH2)
[1]
  % Relative Potency Ratio: 1.4
Male C57Bl/6 mice
  24 hr % Vehicle Food Intake: 66.0%

## CC[C@H](C)[C@H](NC(=O)[C@H](Cc1c[nH]c2ccccc12)NC(=O)[C@H](CCCCNC(=O)COCCOCCNC(=O)COCCOCCNC(=O)CC[C@H](NC(=O)CCCCCCCCCCCCCCCCC(=O)O)C(=O)O)NC(=O)[C@@H](NC(=O)[C@H](Cc1ccccc1)NC(=O)[C@H](CC(=O)O)NC(=O)[C@H](CCC(N)=O)NC(=O)[C@H](C)NC(=O)[C@H](C)NC(=O)[C@H](CCCNC(=N)N)NC(=O)[C@H](CO)NC(=O)[C@H](CC(=O)O)NC(=O)[C@H](CC(C)C)NC(=O)[C@](C)(Cc1ccccc1)NC(=O)[C@H](CCCCN)NC(=O)[C@H](CO)NC(=O)[C@@H](NC(=O)[C@H](CC(=O)O)NC(=O)[C@H](CO)NC(=O)[C@@H](NC(=O)[C@](C)(Cc1ccccc1)NC(=O)[C@H](CO)NC(=O)CNC(=O)[C@H](Cc1c[nH]cn1)NC(=O)C(C)(C)NC(=O)[C@@H](N)Cc1c[nH]cn1)[C@@H](C)O)C(C)C)C(C)C)C(=O)N[C@@H](C)C(=O)N[C@@H](CC(N)=O)C(=O)N[C@H](C(N)=O)[C@@H](C)O [Peptide 361] (H-H[Aib]HGS[αMeF]TSDVSK[αMeF]LDSRAAQDFVK([AEEA-AEEA-γGlu-C18 diacid])WIANT-NH2)
[1]
  % Relative Potency Ratio: 1.3
Wildtype (WT) mice; 10 nmol/kg, somatostatin pretreatment 30 min prior to cpd
  WT % glucose change 120 min: −23.0%

## CC(C)C[C@H](NC(=O)[C@H](Cc1c[nH]c2ccccc12)NC(=O)[C@H](CCC(N)=O)NC(=O)[C@@H](NC(=O)[C@H](Cc1ccccc1)NC(=O)[C@H](CC(=O)O)NC(=O)[C@H](CCCNC(=N)N)NC(=O)[C@H](C)NC(=O)[C@H](CCCNC(=N)N)NC(=O)[C@H](CCCCNC(=O)COCCOCCNC(=O)COCCOCCNC(=O)CC[C@H](NC(=O)CCCCCCCCCCCCCCCCC(=O)O)C(=O)O)NC(=O)[C@@H](NC(=O)[C@H](CC(=O)O)NC(=O)[C@H](CC(C)C)NC(=O)[C@](C)(Cc1ccccc1)NC(=O)[C@H](CCCCN)NC(=O)[C@H](CO)NC(=O)[C@@H](NC(=O)[C@H](CC(=O)O)NC(=O)[C@H](CO)NC(=O)[C@@H](NC(=O)[C@H](Cc1ccccc1)NC(=O)[C@@H](NC(=O)CNC(=O)[C@H](CCC(N)=O)NC(=O)C(C)(C)NC(=O)[C@@H](N)Cc1c[nH]cn1)[C@@H](C)O)[C@@H](C)O)C(C)C)[C@@H](C)O)C(C)C)C(=O)N[C@@H](CC(C)C)C(=O)N[C@@H](CCC(=O)O)C(=O)NC(C)(C)C(=O)NCC(=O)O [Peptide 188, H-Aib-Q-G-T-F-T-S-D-V-S-K-αMePhe-L-D-T-K-R-A-R-D-F-V-Q-W-L-L-E-Aib-G-acid]
GLP-1R knockout mice
  GLP-1R KO % glucose change −60 min: 64%

## CCCCCCCCCCCCCCCCCC(=O)N[C@@H](CCC(=O)N[C@@H](CCC(=O)NCCOCCOCCC(=O)NCCOCCOCCC(=O)NCCCC[C@H](NC(=O)[C@H](CO)NC(=O)[C@H](CC(=O)O)NC(=O)[C@H](CC(C)C)NC(=O)[C@](C)(Cc1ccccc1)NC(=O)[C@H](CCCCN)NC(=O)[C@H](CO)NC(=O)[C@@H](NC(=O)[C@H](CC(=O)O)NC(=O)[C@H](CO)NC(=O)[C@@H](NC(=O)[C@](C)(Cc1ccccc1)NC(=O)[C@H](CO)NC(=O)CNC(=O)[C@H](CCC(N)=O)NC(=O)[C@H](CO)NC(=O)[C@@H](N)Cc1c[nH]cn1)[C@@H](C)O)C(C)C)C(=O)N[C@@H](C)C(=O)N[C@@H](C)C(=O)N[C@@H](CCC(N)=O)C(=O)N[C@@H](CC(=O)O)C(=O)N[C@@](C)(Cc1ccccc1)C(=O)N[C@H](C(=O)N[C@@H](CCC(N)=O)C(=O)NC(C)(C)C(=O)N[C@@H](CC(C)C)C(=O)N[C@@H](CCC(=O)O)C(=O)N[C@@H](C)C(=O)NCC(=O)NCC(N)=O)C(C)C)C(=O)O)C(=O)O [Peptide 78] (H-HSQGS[αMeF]TSDVSK[αMeF]LDSK([PEG2-PEG2-γGlu-γGlu-Stearoyl])AAQD[αMeF]VQ[Aib]LEAGG-NH2; N-terminus assumed)
neprilysin
  % intact peptide over time, Neprilysin: 100%
Wildtype (WT) mice; 3 nmol/kg, no somatostatin pretreatment
  WT % glucose change 120 min: −42.0%

B1: Peptide 362 (peptide)
peptide: H[Aib]HGS[αMeF]TSDVSK[αMeF]LDSRAAQDFVK([AEEA-AEEA-γGlu-γGlu-C18 diacid])WIANT-NH2
modifications: N-terminus assumed
SMILES: CC[C@H](C)[C@H](NC(=O)[C@H](Cc1c[nH]c2ccccc12)NC(=O)[C@H](CCCCNC(=O)COCCOCCNC(=O)COCCOCCNC(=O)CC[C@H](NC(=O)CC[C@H](NC(=O)CCCCCCCCCCCCCCCCC(=O)O)C(=O)O)C(=O)O)NC(=O)[C@@H](NC(=O)[C@H](Cc1ccccc1)NC(=O)[C@H](CC(=O)O)NC(=O)[C@H](CCC(N)=O)NC(=O)[C@H](C)NC(=O)[C@H](C)NC(=O)[C@H](CCCNC(=N)N)NC(=O)[C@H](CO)NC(=O)[C@H](CC(=O)O)NC(=O)[C@H](CC(C)C)NC(=O)[C@](C)(Cc1ccccc1)NC(=O)[C@H](CCCCN)NC(=O)[C@H](CO)NC(=O)[C@@H](NC(=O)[C@H](CC(=O)O)NC(=O)[C@H](CO)NC(=O)[C@@H](NC(=O)[C@](C)(Cc1ccccc1)NC(=O)[C@H](CO)NC(=O)CNC(=O)[C@H](Cc1c[nH]cn1)NC(=O)C(C)(C)NC(=O)[C@@H](N)Cc1c[nH]cn1)[C@@H](C)O)C(C)C)C(C)C)C(=O)N[C@@H](C)C(=O)N[C@@H](CC(N)=O)C(=O)N[C@H](C(N)=O)[C@@H](C)O
Human glucagon receptor
  hGluc-R EC50 (pM): 42.8 pM

## H[Aib]HGS[αMeF]TSDVSK[αMeF]LDSRAAQDFVK([AEEA-AEEA-γGlu-C20 diacid])WIANT-NH2 (not fully specified) [Peptide 367]
Human glucagon receptor
  hGluc-R EC50 (pM): 72.4 pM

Source: patent US12630600B2 (MEDIMMUNE LIMITED, priority 2022, dated 2026)
